Experimental data from patent publication US12527835B2, “Brevican-binding peptides for brain tumor imaging” (The Brigham and Women's Hospital, Inc., priority 2018, dated 2026).
Where a SMILES comes first, the peptide text is derived from it. [ ]: non-standard residue; d: D form.

Tests used:
BT188 glioma stem cells = assay: Peptide uptake in BT188 (BΔg-high) versus BT145 (BΔg-low) glioma stem cells, fluorescence imaging; type: cell-based, human; conditions: fluorescein-labeled peptides, 5 μM
Source text: FIGS. 3A-I. Peptide characterization for BΔg specificity in glioma stem cells. (a) Table summary listing the properties of 7 peptides (composed of 8 D-amino acid residues, SEQ ID NOs:3-9, in order of appearance) that were isolated from the OBOC library screen. MW=molecular weight; KD=Kyte-Doolittle scale for amino acid hydropathy (positive scores indicate […]) (Kyte and Doolittle, J. Mol. Biol. 157, 105-132 (1982)). (b) Chemical structure showing the linkage between the peptide and FITC. (c) Western blot analysis showing the level of BΔg and Bcan in human embryo kidney (HEK) cells, and Bcan-overexpressing HEK cells (HEK-Bcan). […] Each group was normalized to a no-blocking (vehicle) control. Statistics were performed using multiple t-tests, and significance was measured in comparison to each vehicle control (p<0.0001). (e) Uptake of fluorescein-labeled BTP-2, 7, 8, 9, and 10 (at 5 μM conc.) in BT188 (BΔg-high) or BT145 (BΔg-low) glioma stem cells (GSCs). Western blot analysis on the top right confirms the BΔg expression level. […] Statistics were performed using the two-way ANOVA and Tukey's Multiple Comparison test. (f) Chemical structure showing the linkage between the peptide and Cy5.5 dye. (g) Western blot analysis showing the expression of BΔg in GBM-6 cells, with negligible BΔg level in astrocytes or neural progenitor cells (NPC). (h) Graph showing the cell uptake ranking of the top 3 peptide candidates, BTP-7, 8 and 9 in GBM-6 cells as determined by flow cytometry analysis with s.d. error bars (5 μM conc.; nevents=20,000 cells; nexperiment=5). Each group is normalized to the control scramble peptide (Scr-8). Statistics were performed using the one-way ANOVA and Tukey's Multiple Comparison test (significance were measured in comparison to the Scr-8 control). (i) Bar graph showing the uptake of BTP-7, 8 and 9 in GBM-6 cells and NPC with 95% confidence interval error bars (1 μM conc.; nevents=20,000 cells). Statistics were performed using the two-way ANOVA and Sidak's Multiple Comparison test.

HEK-Bcan cells = assay: Flow cytometry blocking study with 50× molar excess of unlabeled peptide; type: cell-based, human; conditions: fluorescein-conjugated peptide 1 μM
Description: Cells were washed once with PBS and then, treated with 1 mL of 2.5 mM EDTA to dissociate the cells. The EDTA was removed by centrifugation, and PBS supplemented with 10% FBS was added to create a single-cell suspension. All peptide stocks were dissolved in DMSO, and stored at −20° C. in the dark. Cells were incubated with each peptide (at the desired final concentration, between 1-10 μM) for 3 hrs at 37° C. in the dark under constant rotation. After incubation, cells were washed 3× with PBS with 10% FBS (by centrifugation at 7000 rpm for 3 mins each). Then, cells were resuspended in 3.7% formaldehyde for fixation, and finally washed once with PBS. Cells were evaluated for peptide uptake (mean fluorescence intensity) by flow cytometry (10,000-20,000 events).
For blocking studies, cells were dissociated as described above and resuspended in cold PBS with 10% FBS. Cells were then incubated with a 50× molar excess of unlabeled peptide for 10 mins on ice, before adding the corresponding FITC-labeled peptide at a final concentration of 1 μM and incubated for 1.5 hrs on ice. Cells were then washed with cold PBS with 10% FBS, fixed and analyzed by flow cytometry.

SMILES: CC[C@@H](C)[C@@H](NC(=O)[C@H](N)[C@H](C)O)C(=O)N[C@H](CCCNC(=N)N)C(=O)N[C@H](CCCCN)C(=O)N[C@H](CC(C)C)C(=O)N[C@@H](C(=O)N[C@H](CCCNC(=N)N)C(=O)N[C@H](Cc1c[nH]cn1)C(N)=O)C(C)C [BTP-8] (H-[dT][dI][dR][dK][dL][dV][dR][dH]-NH2; N-terminus and C-terminus assumed)
- size of the difference in uptake between BT188 and BT145 GSCs (ranking) (BT188 glioma stem cells): largest and most significant difference
- uptake in BT188 GSCs compared with BT145 GSCs (BT188 glioma stem cells): greater uptake
- uptake in HEK-Bcan cells in the presence of the blocking peptide (HEK-Bcan cells): reduced uptake
